Assay results as given in patent publication US9234046B2, “Treatment of renal disease” (OPSONA Therapeutics Ltd, priority 2007, dated 2016).
Where “and” joins values, the source holds several entries; their conditions need not be identical. Identical values can stand only once.

Tests used:
C57BL/6 mice [1] = assay: Nephrotoxic serum + Pam3CysSK4 glomerular inflammation model, 2 hours: glomerular neutrophils and circulating leukocytes; assay type: in vivo; conditions: individual mice; 2 hours after disease induction; 50 glomerular cross sections counted
Procedure: (§1) Methods for generating nephrotoxic antibody, blood counts, processing histology, assessment of histology are disclosed in Brown H J, Lock, H R, Sacks S H, Robson M G TLR2 stimulation of intrinsic kidney cells in the induction of immune mediated glomerulonephritis, J Immunol 2006, 177(3):1925-1931, the contents of which are incorporated herein by reference. These methods were followed in the performance of the present example.
(§2) The glomerular histology was assessed at 2 hours and 24 hours following disease induction with NTS. Kidneys were fixed in Bouin's solution and stained with periodic acid-Schiff reagent. At 2 hours, the number of neutrophils (identified by their characteristic nuclear morphology) per 50 glomerular cross sections was counted. At 24 hours, the amount of glomerular thrombosis was assessed by identification of the amount of periodic acid-Schiff-positive material. In total, 50 glomeruli were assessed for each animal for signs of glomerular thrombosis, and a score was assigned as follows: grade 0, no periodic acid-Schiff-positive material; grade 1, <25%; grade 2, 25-50%; grade 3, 50-75%; grade 4, 75-100%. All sections scored for neutrophils and glomerular thrombosis were done so blindly.
200 ul of nephrotoxic serum containing 10 ug of the lipopetide Pam3CysSK4 (EMC microcollections) was given intravenously via the tail vein. […]

C57BL/6 mice [2] = assay: Nephrotoxic serum + Pam3CysSK4 glomerular inflammation model, 24 hours: albuminuria and glomerular thrombosis; assay type: in vivo
Procedure: as §1
Kidney samples were fixed for 4 hours in Bouin's solution, transferred into formalin, then processed and embedded in paraffin. Sections were cut at 0.5 μm thickness and stained with periodic acid-Schiff (PAS) reagent. All samples then were assessed blindly for glomerular thrombosis by identification of the amount of PAS-positive material. In total, 50 glomeruli were assessed for each mouse for signs of glomerular thrombosis, and a score was assigned to each as follows: Grade 0, no PAS-positive material; grade 1, […]; grade 2, 25 to 50%, grade 3, 50 to 75%, and grade 4, 75 to 100%. The average glomerular thrombosis score for each mouse then was calculated. Sections also were assessed blindly for glomerular crescents. A total of 50 glomeruli were assessed, and the number of crescents (two or more layers of cells in Bowman's space) was expressed as a percentage.
as §2
Mice were housed in metabolic cages for 24 hours for urine collections. The urine albumin concentration was measured by radial immunodiffusion. The sensitivity of the radial immunodiffusion assay for albumin was 0.05 mg/ml. Urine samples were diluted to 1:40 so that values fell on the standard curve.
200 ul of nephrotoxic serum containing 10 ug of the lipopetide Pam3CysSK4 (EMC microcollections) was given intravenously via the tail vein. 2 hours prior to this, mice were treated as follows. […]
The above groups were place in metabolic cages immediately after induction of disease and exsanguinated under anaesthesia 24 hours later. […] Albuminuria and thrombosis data was analysed after a logarithmic transformation.

[3] = 24 hours, versus other treatment groups

C[C@]12C=CC(=O)C=C1CC[C@@H]1[C@@H]2C(=O)C[C@@]2(C)[C@H]1CC[C@]2(O)C(=O)CO [Prednisone]
pmn/glom (neutrophils per glomerular cross section) (C57BL/6 mice [1]): 0.54 pmn/glom and 0.28 pmn/glom and 0.42 pmn/glom and 0.24 pmn/glom and 0.34 pmn/glom
albuminuria, in words (C57BL/6 mice [2]; [3]): did not reach significance
glomerular thrombosis, in words (C57BL/6 mice [2]; [3]): significantly less thrombosis than PBS but not control antibody treated mice
alb, mg/ml (albuminuria) (C57BL/6 mice [2]; individual mice, 24 hour urine collection, radial immunodiffusion): 2.54 mg/mL and 4.54 mg/mL and 4.71 mg/mL and 4.98 mg/mL
Thromb/50 gloms (glomeruli showing any thrombosis out of a total of 50) (C57BL/6 mice [2]; individual mice, 24 hours after disease induction, treated 2 hours before): 7 /50 gloms (3×) and 3 /50 gloms
